Measurements from PubChem BioAssay (NCI).
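Cultured in 96-well plates, cells were exposed to test compound for 48 hours across five concentrations. The concentration for full growth arrest is given as TGI.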

Tests used:
Assay in all cases: NCI tumour cell line growth inhibition, 48 h
OVCAR-5 ovarian = test system: OVCAR-5 ovarian
HOP-62 NSCLC = test system: HOP-62 NSCLC
MDA-MB-231 breast = test system: MDA-MB-231 breast
NCI-H23 lung = test system: NCI-H23 lung
LOX IMVI melanoma = test system: LOX IMVI melanoma
MALME-3M melanoma = test system: MALME-3M melanoma
SK-OV-3 ovarian = test system: SK-OV-3 ovarian
SK-MEL-28 melanoma = test system: SK-MEL-28 melanoma
IGROV1 ovarian = test system: IGROV1 ovarian
SF-295 CNS = test system: SF-295 CNS
NCI-H522 lung = test system: NCI-H522 lung
SK-MEL-2 melanoma = test system: SK-MEL-2 melanoma
NCI/ADR-RES ovarian = test system: NCI/ADR-RES ovarian
MDA-N = test system: MDA-N
ACHN renal = test system: ACHN renal
MDA-MB-435 = test system: MDA-MB-435
SR leukemia = test system: SR leukemia
OVCAR-8 ovarian = test system: OVCAR-8 ovarian
SF-268 CNS = test system: SF-268 CNS
HOP-92 NSCLC = test system: HOP-92 NSCLC
TK-10 renal = test system: TK-10 renal
UACC-62 melanoma = test system: UACC-62 melanoma
HCC-2998 colon = test system: HCC-2998 colon
RPMI-8226 leukemia = test system: RPMI-8226 leukemia
M14 melanoma = test system: M14 melanoma
SN12C renal = test system: SN12C renal
NCI-H460 lung = test system: NCI-H460 lung
T-47D breast = test system: T-47D breast
U251 CNS = test system: U251 CNS
CAKI-1 renal = test system: CAKI-1 renal
A549 NSCLC = test system: A549 NSCLC
HL-60(TB) leukemia = test system: HL-60(TB) leukemia
HT29 colon = test system: HT29 colon
EKVX NSCLC = test system: EKVX NSCLC
SNB-19 CNS = test system: SNB-19 CNS
SK-MEL-5 melanoma = test system: SK-MEL-5 melanoma
KM12 colon = test system: KM12 colon
786-0 renal = test system: 786-0 renal
MCF7 breast = test system: MCF7 breast
UACC-257 melanoma = test system: UACC-257 melanoma
UO-31 renal = test system: UO-31 renal
PC-3 prostate = test system: PC-3 prostate
HCT-15 colon = test system: HCT-15 colon
COLO 205 colon = test system: COLO 205 colon
SNB-75 CNS = test system: SNB-75 CNS
MOLT-4 leukemia = test system: MOLT-4 leukemia
OVCAR-4 ovarian = test system: OVCAR-4 ovarian
CCRF-CEM leukemia = test system: CCRF-CEM leukemia
A498 renal = test system: A498 renal
NCI-H226 lung = test system: NCI-H226 lung
HCT-116 colon = test system: HCT-116 colon
HS 578T breast = test system: HS 578T breast
K-562 leukemia = test system: K-562 leukemia
DU-145 prostate = test system: DU-145 prostate

Measured: TGI

C#CC(O)/C=C/C(O)CCCC(O)CC#CC(O)C#CC(O)CCCC(O)/C=C/CCCCCC(=O)CCCCCCCCCCCCCC(O)C(O)C#CC(=O)O (centres undefined)
17.9 µM: OVCAR-4 ovarian
24.6 µM: MDA-MB-231 breast
38.7 µM: MCF7 breast
33.3 µM: HS 578T breast
26.1 µM: SR leukemia
35 µM: T-47D breast
26.6 µM: MOLT-4 leukemia
47.3 µM: SK-MEL-2 melanoma
26 µM: SNB-75 CNS
25 µM: SK-MEL-28 melanoma
34.2 µM: CCRF-CEM leukemia
24.5 µM: LOX IMVI melanoma
36.6 µM: IGROV1 ovarian
27.1 µM: HOP-92 NSCLC
18.3 µM: NCI-H522 lung
> 50 µM: all other assays above
